Measurements: patent US20240270762A1, “PENICILLIN-BINDING PROTEIN INHIBITORS” (priority 2021, published 2024)
In brackets after ≈: the same amount, converted by molar mass.

Key:
[1] = target: T1, PBP3 from Escherichia coli (K-12) (Escherichia coli, UniProt P0AD68); experiment: Bocillin-FL fluorescence polarization competition binding, E. coli PBP3
T1 construct: made in house
Outline: (§1)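 Purified PBP was preincubated with inhibitor (E. coli PBP3 1.5 μM, 30 min; P. aeruginosa PBP3 0.75 μM, A. baumannii PBP3 0.2 μM and PBP1a 1 μM, 15 min), then Bocillin-FL (0.1 μM; 0.05 μM for PBP1a) added and FP read up to 60 min. EC50 = 50% loss of bound probe.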

[2] = target: T2, PBP3 from Pseudomonas aeruginosa (PAO1) (Pseudomonas aeruginosa, UniProt G3XD46); experiment: Bocillin-FL fluorescence polarization competition binding, P. aeruginosa PBP3; details: Binding affinity to P. aeruginosa PBP3; fluorescence polarization competition binding assay using Bocillin-FL; read-out: P. aeruginosa PBP3 Potency
T2 construct: made in house
T2 sequence (G3XD46 whole entry): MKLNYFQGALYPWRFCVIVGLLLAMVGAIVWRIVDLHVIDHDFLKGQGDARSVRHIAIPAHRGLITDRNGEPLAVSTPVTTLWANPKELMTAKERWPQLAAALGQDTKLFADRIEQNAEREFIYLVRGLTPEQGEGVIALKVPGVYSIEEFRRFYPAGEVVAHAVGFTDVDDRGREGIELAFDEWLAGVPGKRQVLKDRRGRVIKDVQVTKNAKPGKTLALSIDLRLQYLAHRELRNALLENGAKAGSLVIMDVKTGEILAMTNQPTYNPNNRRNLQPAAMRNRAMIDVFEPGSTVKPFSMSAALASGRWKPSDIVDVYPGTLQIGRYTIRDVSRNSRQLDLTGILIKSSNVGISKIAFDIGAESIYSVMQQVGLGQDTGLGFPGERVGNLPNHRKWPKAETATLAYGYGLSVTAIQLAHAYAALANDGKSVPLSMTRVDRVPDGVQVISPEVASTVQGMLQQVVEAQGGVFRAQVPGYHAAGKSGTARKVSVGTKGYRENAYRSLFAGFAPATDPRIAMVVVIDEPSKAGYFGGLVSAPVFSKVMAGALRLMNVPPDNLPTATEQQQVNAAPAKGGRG
Outline: as §1

E. coli AG100 = experiment: microbe, parasite or virus in culture; type: cell-based; details: Escherichia coli, AG100, read-out: MIC E. coli AG100
E. coli D22 = experiment: microbe, parasite or virus in culture; type: cell-based; details: Escherichia coli, D22, read-out: MIC E. coli D22
E. coli AG100A = experiment: Broth microdilution MIC in CAMHB; type: cell-based; details: Escherichia coli, read-out: MIC E. coli AG100A
K. pneumoniae 848844 = experiment: microbe, parasite or virus in culture; type: cell-based; details: Klebsiella pneumoniae, 848844, read-out: MIC K. pneumoniae 848844
K. pneumoniae UMM = experiment: microbe, parasite or virus in culture; type: cell-based; details: Klebsiella pneumoniae, read-out: MIC K. pneumoniae UMM
P. aeruginosa ATCC 27853 = experiment: microbe, parasite or virus in culture; type: cell-based; details: Pseudomonas aeruginosa, ATCC27853, read-out: MIC P. aeruginosa ATCC 27853
[3] = tested on: N. gonorrhoeae ATCC 49226; experiment: Liquid broth MIC in Fastidious broth; details: Neisseria gonorrhoeae, ATCC49226, read-out: Minimum Inhibitory Concentration (MIC), N. gonorrhoeae ATCC 49226
N. gonorrhoeae FA1090 = experiment: Liquid broth MIC in Fastidious broth; details: Neisseria gonorrhoeae, FA1090, read-out: Minimum Inhibitory Concentration (MIC), N. gonorrhoeae FA 1090
N. gonorrhoeae MS11 = experiment: Liquid broth MIC in Fastidious broth; details: Neisseria gonorrhoeae, MS11, read-out: Minimum Inhibitory Concentration (MIC), N. gonorrhoeae MS11
Procedure: Additional antibacterial testing of the series was performed in 8 reference strains of N. gonorrhoeae (ATCC 49226, FA1090, MS 11, WHO G, WHO L, WHO M, WHO K, WHO X, WHO Z, WHO Q, CDC-0197). ATCC 49226, FA1090, MS11, WHO G, WHO L, and WHO M produce wild type or wild-type like PBP2. WHO K, WHO X, WHO Z, WHO Q, and CDC-0197 produce mosaic PBP2. Liquid broth-based assays were used for antibacterial testing of PBP inhibitors in Neisseria gonorrhoeae. Briefly, cryo-preserved bacterial cultures of clinical strains were streaked for isolation on Chocolate Agar (72 g/L (2×) GC Agar Base (BD #228950) and 2% (2×) Hemoglobin was autoclaved at 121° C. for 20 minutes to sterilize. Once cooled to ˜50° C. the 2×GC Agar Base and 2× Hemoglobin solutions are combined and 1% IsoVitaleX Enrichment (BD #211876) was added to the solution). Strains were incubated at 36° C. and 5% CO2 to allow growth of colonies, 24 hours before inoculum preparation. 2-fold serial dilutions of test compounds were conducted in a 96 well plate with a final volume of 75 μL per well at 2-fold the final desired concentration in Fastidious broth (Remel #R07664). For preparation of assay inoculum, a direct suspension was prepared by aseptically swabbing 10-15 colonies from agar plates into culture tubes containing 2 mL of fresh sterile saline. After the dilution plates were set up, direct suspensions were then diluted in a cuvette containing sterile saline and the optical density was measured at 600 nm. Inocula were diluted such that 75 μL of this culture in Fastidious broth results in a starting bacterial concentration of 5×10^5 CFU/mL when added to the dilution plates. The plates were incubated for ˜24 hours at 36° C. and 5% CO2.

N. gonorrhoeae WHO M = experiment: Liquid broth MIC in Fastidious broth; details: Neisseria gonorrhoeae, read-out: Minimum Inhibitory Concentration (MIC), N. gonorrhoeae WHO M
N. gonorrhoeae WHO Z = experiment: Liquid broth MIC in Fastidious broth; details: Neisseria gonorrhoeae, read-out: Minimum Inhibitory Concentration (MIC), N. gonorrhoeae WHO Z

T1 sequence (P0AD68 1-577): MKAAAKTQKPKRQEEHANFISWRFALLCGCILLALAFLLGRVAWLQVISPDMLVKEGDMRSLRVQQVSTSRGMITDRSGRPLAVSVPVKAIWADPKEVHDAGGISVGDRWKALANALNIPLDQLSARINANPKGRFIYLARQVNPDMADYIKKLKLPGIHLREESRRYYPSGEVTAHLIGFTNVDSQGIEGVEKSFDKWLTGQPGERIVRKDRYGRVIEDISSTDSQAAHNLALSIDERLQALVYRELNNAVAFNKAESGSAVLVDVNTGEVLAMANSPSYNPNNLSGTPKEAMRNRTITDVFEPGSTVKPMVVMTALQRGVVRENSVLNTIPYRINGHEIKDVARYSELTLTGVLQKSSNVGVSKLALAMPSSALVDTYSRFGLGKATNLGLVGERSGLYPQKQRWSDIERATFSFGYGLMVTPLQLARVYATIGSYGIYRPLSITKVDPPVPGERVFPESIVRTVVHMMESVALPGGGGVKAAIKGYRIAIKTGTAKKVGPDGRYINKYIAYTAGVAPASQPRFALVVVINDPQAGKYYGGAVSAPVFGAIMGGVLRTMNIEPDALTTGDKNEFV

SMILES	EC50 [1]	IC50 [2]	MIC (E. coli AG100)	MIC (E. coli D22)	MIC (E. coli AG100A)	MIC (K. pneumoniae 848844)	MIC (K. pneumoniae UMM)	MIC (P. aeruginosa ATCC 27853)	MIC [3]	MIC (N. gonorrhoeae FA1090)	MIC (N. gonorrhoeae MS11)	MIC (N. gonorrhoeae WHO M)	MIC (N. gonorrhoeae WHO Z)
NC(=O)c1ccc(C(=O)NC(C(=O)N[C@H]2Cc3cccc(C(=O)O)c3OB2O)c2ccc(P(=O)(O)O)cc2)nc1 (stereo partly drawn) [Example 188, (3R)-3-(2-(5-carbamoylpicolinamido)-2-(4-phosphonophenyl)acetamido)-2-hydroxy-3,4-dihydro-2H-benzo[e][1,2]oxaborinine-8-carboxylic acid]	10 to 50 µM	< 10 µM	> 128 µg/mL	8 to 16 µg/mL (≈ 14.1 to 28.2 µM)	> 128 µg/mL	> 128 µg/mL	> 128 µg/mL	> 128 µg/mL	< 1 µg/mL	< 1 µg/mL	< 1 µg/mL	< 1 µg/mL	1 to 2 µg/mL (≈ 1.76 to 3.52 µM)
O=C(O)c1cccc2c1OB(O)[C@@H](NC(=O)C(NC(=O)N1CCCC1=O)c1ccc(P(=O)(O)O)cc1)C2 (stereo partly drawn) [Example 57, (3R)-2-hydroxy-3-(2-(2-oxopyrrolidine-1-carboxamido)-2-(4-phosphonophenyl)acetamido)-3,4-dihydro-2H-benzo[e][1,2]oxaborinine-8-carboxylic acid]	10 to 50 µM	< 10 µM	> 128 µg/mL	8 to 16 µg/mL (≈ 15.1 to 30.1 µM)	32 to 64 µg/mL (≈ 60.2 to 120 µM)	> 128 µg/mL	32 to 64 µg/mL (≈ 60.2 to 120 µM)	> 128 µg/mL	< 1 µg/mL	< 1 µg/mL	< 1 µg/mL	< 1 µg/mL	1 to 2 µg/mL (≈ 1.88 to 3.76 µM)
O=C(O)c1cccc2c1OB(O)[C@@H](NC(=O)[C@@H](NC(=O)c1cccn(C(F)F)c1=O)c1ccc(P(=O)(O)O)cc1)C2 (single isomer, unassigned) [Example 190]	10 to 50 µM	< 10 µM	> 128 µg/mL	32 to 64 µg/mL (≈ 54.1 to 108 µM)	> 128 µg/mL	> 128 µg/mL	> 128 µg/mL	> 128 µg/mL	4 to 8 µg/mL (≈ 6.77 to 13.5 µM)	< 1 µg/mL	4 to 8 µg/mL (≈ 6.77 to 13.5 µM)	1 to 2 µg/mL (≈ 1.69 to 3.38 µM)	4 to 8 µg/mL (≈ 6.77 to 13.5 µM)
CC(C)(C)C(=O)NC(C(=O)N[C@H]1Cc2cccc(C(=O)O)c2OB1O)c1ccc(P(=O)(O)O)cc1 (stereo partly drawn) [Example 29, (3R)-2-hydroxy-3-(2-(4-phosphonophenyl)-2-pivalamidoacetamido)-3,4-dihydro-2H-benzo[e][1,2]oxaborinine-8-carboxylic acid]	50 to 250 µM	10 to 50 µM	> 128 µg/mL	8 to 16 µg/mL (≈ 15.9 to 31.7 µM)	> 128 µg/mL	> 128 µg/mL	32 to 64 µg/mL (≈ 63.5 to 127 µM)	32 to 64 µg/mL (≈ 63.5 to 127 µM)	16 to 32 µg/mL (≈ 31.7 to 63.5 µM)	4 to 8 µg/mL (≈ 7.93 to 15.9 µM)	16 to 32 µg/mL (≈ 31.7 to 63.5 µM)	4 to 8 µg/mL (≈ 7.93 to 15.9 µM)	16 to 32 µg/mL (≈ 31.7 to 63.5 µM)
N#Cc1ccnc(C(=O)NC(C(=O)N[C@H]2Cc3cccc(C(=O)O)c3OB2O)c2ccc(P(=O)(O)O)cc2)c1 (stereo partly drawn) [Example 179, (3R)-3-(2-(4-cyanopicolinamido)-2-(4-phosphonophenyl)acetamido)-2-hydroxy-3,4-dihydro-2H-benzo[e][1,2]oxaborinine-8-carboxylic acid]	50 to 250 µM	< 10 µM	> 128 µg/mL	32 to 64 µg/mL (≈ 58.2 to 116 µM)	> 128 µg/mL	> 128 µg/mL	> 128 µg/mL	> 128 µg/mL	16 to 32 µg/mL (≈ 29.1 to 58.2 µM)	1 to 2 µg/mL (≈ 1.82 to 3.63 µM)	16 to 32 µg/mL (≈ 29.1 to 58.2 µM)	4 to 8 µg/mL (≈ 7.27 to 14.5 µM)	16 to 32 µg/mL (≈ 29.1 to 58.2 µM)
Nc1nc(C(=O)N[C@@H](C(=O)N[C@H]2Cc3cccc(C(=O)O)c3OB2O)c2ccc(P(=O)(O)O)cc2)cs1 (racemic) [Example 51, (R)-3-((S)-2-(2-aminothiazole-4-carboxamido)-2-(4-phosphonophenyl)acetamido)-2-hydroxy-3,4-dihydro-2H-benzo[e][1,2]oxaborinine-8-carboxylic acid and (R)-3-((R)-2-(2-aminothiazole-4-carboxamido)-2-(4-phosphonophenyl)acetamido)-2-hydroxy-3,4-dihydro-2H-benzo[e][1,2]oxaborinine-8-carboxylic acid]	10 to 50 µM	< 10 µM	> 128 µg/mL	2 to 4 µg/mL (≈ 3.66 to 7.32 µM)	32 to 64 µg/mL (≈ 58.6 to 117 µM)	> 128 µg/mL	32 to 64 µg/mL (≈ 58.6 to 117 µM)	> 128 µg/mL	< 1 µg/mL	< 1 µg/mL	< 1 µg/mL	< 1 µg/mL	1 to 2 µg/mL (≈ 1.83 to 3.66 µM)
O=C(O)c1cccc2c1OB(O)[C@@H](NC(=O)[C@@H](NC(=O)c1cnc3sccn3c1=O)c1ccc(P(=O)(O)O)cc1)C2 (single isomer, unassigned) [Example 194]	10 to 50 µM	< 10 µM	> 128 µg/mL	32 to 64 µg/mL (≈ 53.5 to 107 µM)	> 128 µg/mL	> 128 µg/mL	> 128 µg/mL	> 128 µg/mL	4 to 8 µg/mL (≈ 6.69 to 13.4 µM)	1 to 2 µg/mL (≈ 1.67 to 3.34 µM)	4 to 8 µg/mL (≈ 6.69 to 13.4 µM)	4 to 8 µg/mL (≈ 6.69 to 13.4 µM)	16 to 32 µg/mL (≈ 26.7 to 53.5 µM)
N[C@@H](C(=O)N[C@H]1Cc2cccc(C(=O)O)c2OB1O)c1ccc(P(=O)(O)O)cc1 (single isomer, unassigned) [Example 171]	> 250 µM	> 250 µM	> 128 µg/mL	> 128 µg/mL	> 128 µg/mL	> 128 µg/mL	> 128 µg/mL	> 128 µg/mL	> 64 µg/mL	> 64 µg/mL	> 64 µg/mL	> 64 µg/mL	> 64 µg/mL
CCN1CCN(C(=O)NC(C(=O)N[C@H]2Cc3cccc(C(=O)O)c3OB2O)c2ccc(CP(=O)(O)O)cc2)C(=O)C1=O (stereo partly drawn) [Example 20, (3R)-3-(2-(4-ethyl-2,3-dioxopiperazine-1-carboxamido)-2-(4-(phosphonomethyl)phenyl)acetamido)-2-hydroxy-3,4-dihydro-2H-benzo[e][1,2]oxaborinine-8-carboxylic acid]	< 10 µM	< 10 µM	8 to 16 µg/mL (≈ 13.3 to 26.6 µM)	2 to 4 µg/mL (≈ 3.32 to 6.64 µM)	8 to 16 µg/mL (≈ 13.3 to 26.6 µM)	> 128 µg/mL	32 to 64 µg/mL (≈ 53.1 to 106 µM)	> 128 µg/mL	< 1 µg/mL	< 1 µg/mL	< 1 µg/mL	< 1 µg/mL	< 1 µg/mL
